Biological target: T1, CD33 wild-type (Homo sapiens, UniProt P20138)
T1 construct: DNA encoding D18 to H143 of human CD33; made in house
Experiment: surface plasmon resonance (SPR), CD33 wild-type V-set domain
Assay type: binding
Conditions: P22 as analyte, immobilized CD33 wild-type; 1:1 steady state model
Method: We next performed surface plasmon resonance (SPR) measurements on P22 binding to CD33 wild-type, and selected mutants, to obtain detailed kinetic data (see Transparent Methods). The CD33 V-set domain has a free cysteine residue (C36), which caused anomalous results in some of our SPR experiments due to disulfide-linked oligomers forming in solution.
Figure 3 P22 Binding to CD33 Wild-Type and Mutants (A) An example of affinity analysis for 1–243 μM (3-fold dilutions) of P22 binding to immobilized CD33^C36S. Data obtained in duplicate using single-cycle analysis and fit to a steady-state binding model to determine the equilibrium binding constant. (B) An example of affinity analysis of P22 binding to immobilized CD33 wild-type (WT) as per example in (A). (C) Sensorgram data for 0.01–9 μM (3-fold dilutions) of CD33^C36S binding to immobilized P22. Data obtained in triplicate using single concentration cycles and fit to a 1:1 binding model for kinetic analysis. (D) Sensorgram data for 0.03–9 μM (3-fold dilutions) CD33 WT binding to immobilized P22. Data obtained in triplicate using single concentration cycles and fit to a bivalent analyte model for kinetic analysis. Measurements in triplicate showing mean ± SD. […] Data presented are representative of three independent experiments performed in quadruplicate for each compound. […]

T1 sequence (P20138 18-143): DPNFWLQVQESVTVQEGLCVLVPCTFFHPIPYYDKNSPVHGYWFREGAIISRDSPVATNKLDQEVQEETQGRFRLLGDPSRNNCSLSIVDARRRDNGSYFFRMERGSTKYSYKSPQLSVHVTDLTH

- Kd: 118 ± 41 µM
SMILES: Cc1cc(C(=O)NC[C@@H](O)[C@@H](O)[C@@H]2O[C@@](OC[C@H]3O[C@@H](O[C@H]4[C@H](O)[C@@H](O)[C@H](OCCN)O[C@@H]4CO)[C@H](O)[C@@H](O)[C@H]3O)(C(=O)O)C[C@H](O)[C@H]2NC(=O)Cn2cc(C3CCCCC3)nn2)cc(C)c1O [P22, β-D-Glucopyranoside, 2-aminoethyl O-[N-[2-(4-cyclohexyl-1H-1,2,3-triazol-1-yl)acetyl]-9-deoxy-9-[(4-hydroxy-3,5-dimethylbenzoyl)amino]-α-neuraminosyl] (2→6)-O-β-D-galactopyranosyl-(1→4)-]
